Here are results for 26 compounds from patent publication US12180192B2, “Modulators of THR-β and methods of use thereof” (ALIGOS THERAPEUTICS, INC., priority 2019, dated 2024).

The target in assay [1] is T1, human thyroid receptor beta ligand-binding domain (LBD) (Homo sapiens, UniProt P10828).
T1 construct: purchased Invitrogen
T1 sequence (P10828 217-461 limits assumed): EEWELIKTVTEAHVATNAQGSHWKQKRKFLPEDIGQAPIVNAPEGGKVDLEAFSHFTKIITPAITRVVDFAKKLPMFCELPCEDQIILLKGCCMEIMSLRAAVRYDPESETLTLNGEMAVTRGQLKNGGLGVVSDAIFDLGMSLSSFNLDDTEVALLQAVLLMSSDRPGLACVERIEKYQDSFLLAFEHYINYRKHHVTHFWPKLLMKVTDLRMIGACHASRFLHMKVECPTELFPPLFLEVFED
As to the kind of experiment: TR-FRET thyroid receptor beta coactivator assay (THR biochemical assay, Assay 1). The following applies: for EC50: THR-beta, TR-FRET coactivator assay, read-out: Activity category Assay 1 (EC50, THR-beta agonist); for Emax: read-out: Activity category Assay 1 THRβ (Emax). The source says:
(§1) The TR-FRET thyroid receptor beta coactivator assay was used with slight, optimized modifications of the manufacturer's protocol (Invitrogen). The assay uses a terbium-labeled anti-GST antibody, a glutathione-S-transferase (GST) tagged human thyroid receptor, beta or alpha, ligand-binding domain (LBD), and a fluorescein labeled SRC2-2 coactivator peptide. […] The energy transfer is detected as an increase in the fluorescence emission of the fluorescein acceptor, and a decrease in the fluorescence emission of the terbium donor. The assay is performed in a 384-well black plate in a final volume of 20 μL. Serial dilution of various test agonists was performed in DMSO (1% final DMSO concentration) and added to the test plate. Thyroid receptor beta LBD is added to the plate at a final concentration of 1 nM, followed by the mixture of the fluorescein labeled SRC2-2 coactivator peptide, and the terbium-labeled anti-GST antibody at final concentrations of 200 nM and 2 nM respectively. The assay is incubated for 1 hr at rt protected from light.
(In TR-FRET formats the signal depends on donor and acceptor labels being close together.)

Assay [2] has as its target T2, human thyroid receptor alpha ligand-binding domain (LBD) (Homo sapiens, UniProt P10827).
T2 construct: purchased Invitrogen
Kind of assay: TR-FRET thyroid receptor alpha coactivator assay (THR biochemical assay, Assay 1). The following applies: for EC50: Table 4, THR-alpha, read-out: Activity category Assay 1 (EC50, THR-alpha agonist activity); for Emax: read-out: Activity category Assay 1 THRα (Emax).
Text: as §1

The structures appear in SMILES notation. Where two headings read alike, the source gives them in different places.

T2 sequence (P10827 163-410 isoform P10827-2 limits assumed, other chains not shown): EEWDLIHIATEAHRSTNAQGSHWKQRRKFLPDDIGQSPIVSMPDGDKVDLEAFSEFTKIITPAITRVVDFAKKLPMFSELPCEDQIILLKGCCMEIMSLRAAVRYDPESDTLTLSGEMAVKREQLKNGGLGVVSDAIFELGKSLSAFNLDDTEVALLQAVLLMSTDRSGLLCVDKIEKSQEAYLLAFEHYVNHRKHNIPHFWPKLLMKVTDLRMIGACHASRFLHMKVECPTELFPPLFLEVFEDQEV

For orientation: EC50 means the concentration needed to bring the measured effect to its halfway point. Broadly, the Emax is the size of the effect at its maximum, as opposed to the concentration needed. On to `O=c1cc(-c2ccc3sccc3c2)c(Oc2c(Cl)cc(-n3ncc(=O)[nH]c3=O)cc2Cl)n[nH]1` [Compound 136], for which the EC50 in assay [1] and in assay [2] was 1 to 25 µM each time. In addition, the Emax in assay [1] (Table 5, Assay 1, THRβ) is less than 50%; in assay [2] (Table 5, THRα), less than 50%.
`Nc1nn(-c2cc(Cl)c(Oc3cc(C4Cc5ccccc54)c(=O)[nH]n3)c(Cl)c2)c(=O)[nH]c1=O` (single isomer, unassigned) [Compound 165, 6-amino-2-(4-((5-(bicyclo[4.2.0]octa-1(6),2,4-trien-7-yl)-6-oxo-1,6-dihydropyridazin-3-yl)oxy)-3,5-dichlorophenyl)-1,2,4-triazine-3,5(2H,4H)-dione]: the EC50 in assay [1] is less than 0.05 µM; in assay [2], 0.25 to 1 µM. Further, the Emax in assay [1] (Table 5, Assay 1, THRβ) was less than 50%; in assay [2] (Table 5, THRα), less than 50%.
With `Nc1nn(-c2cc(Cl)c(Oc3n[nH]c(=O)cc3-c3ccc4ccnnc4c3)c(Cl)c2)c(=O)[nH]c1=O` [Compound 111], the EC50 in assay [1] and in assay [2] was more than 25 µM throughout. For the same compound, the Emax in assay [1] (Table 5, Assay 1, THRβ) is less than 50%; in assay [2] (Table 5, THRα) it was less than 50%.
As to `Nc1nn(-c2cc(Cl)c(Oc3cc(C4Cc5ccccc54)c(=O)[nH]n3)c(Cl)c2)c(=O)[nH]c1=O` (single isomer, unassigned) [Compound 166, 6-amino-2-(4-((5-(bicyclo[4.2.0]octa-1(6),2,4-trien-7-yl)-6-oxo-1,6-dihydropyridazin-3-yl)oxy)-3,5-dichlorophenyl)-1,2,4-triazine-3,5(2H,4H)-dione], the EC50 is 0.05 to 0.25 µM in assay [1] and more than 25 µM in assay [2]. Also, the “Activity category Assay 1 THRβ (Emax)” value in assay [1] (Table 5, Assay 1, THRβ) is “C (Emax<50%)”. In addition, the “Activity category Assay 1 THRα (Emax)” value in assay [2] (Table 5, THRα) is “C (Emax<50%)”.
Take `Nc1nn(-c2cc(Cl)c(Oc3n[nH]c(=O)cc3-c3ccn4nccc4c3)c(Cl)c2)c(=O)[nH]c1=O` [Compound 125]: the values for the EC50 in assay [1] and in assay [2] were 1 to 25 µM and more than 25 µM, respectively. For the same compound, the Emax was less than 50% in assay [1] (Table 5, Assay 1, THRβ) and less than 50% in assay [2] (Table 5, THRα).
In the case of `Nc1nn(-c2cc(Cl)c(Oc3n[nH]c(=O)cc3-c3cnc4ccccc4c3)c(Cl)c2)c(=O)[nH]c1=O` [Compound 133], the EC50 in assay [1] is 0.25 to 1 µM; in assay [2], more than 25 µM. For the same compound, the Emax was less than 50% in assay [1] (Table 5, Assay 1, THRβ) and less than 50% in assay [2] (Table 5, THRα).
On to `CC(C)c1cc(Oc2c(Cl)cc(-n3nc(CS(C)(=O)=O)c(=O)[nH]c3=O)cc2Cl)n[nH]c1=O` [Compound 34, 2-[3,5-dichloro-4-[(5-isopropyl-6-oxo-1H-pyridazin-3-yl)oxy]-phenyl]-6-(methanesulfonylmethyl)-4H-1,2,4-triazine-3,5-dione], for which the EC50 in assay [1] was 1 to 25 µM; in assay [2], more than 25 µM. Also, the Emax in assay [1] (Table 5, Assay 1, THRβ) was less than 50%; in assay [2] (Table 5, THRα) it was less than 50%.
With `CSCc1nn(-c2cc(Cl)c(Oc3cc(C(C)C)c(=O)[nH]n3)c(Cl)c2)c(=O)[nH]c1=O` [Compound 33, 2-[3,5-dichloro-4-[(5-isopropyl-6-oxo-1H-pyridazin-3-yl)oxy]phenyl]-6-[(methylsulfanyl)-methyl]-4H-1,2,4-triazine-3,5-dione], the EC50 in assay [1] and in assay [2] was 0.25 to 1 µM in each case. Moreover, the Emax is more than 75% in assay [1] (Table 5, Assay 1, THRβ) and less than 50% in assay [2] (Table 5, THRα).
For `CC(c1ccccc1)c1c[nH]c2ccc(Oc3c(Cl)cc(-n4nc(C#N)c(=O)[nH]c4=O)cc3Cl)cc12` (centres unmarked) [Compound 6, 2-(3,5-dichloro-4-[[3-(1-phenylethyl)-1H-indol-5-yl]oxy]phenyl)-3,5-dioxo-4H-1,2,4-triazine-6-carbonitrile], the EC50 in assay [1] and in assay [2] was more than 25 µM throughout. Also, the Emax is less than 50% in assay [1] (Table 5, Assay 1, THRβ) and less than 50% in assay [2] (Table 5, THRα).
For the compound `Nc1nn(-c2cc(Cl)c(Oc3cc(-c4ccc5nnccc5c4)c(=O)[nH]n3)c(Cl)c2)c(=O)[nH]c1=O` [Compound 108], the EC50 in assay [1] and in assay [2] was more than 25 µM in each case. Further, the Emax in assay [1] (Table 5, Assay 1, THRβ) is less than 50%; in assay [2] (Table 5, THRα), less than 50%.
With `C[C@@H](c1cc(Oc2c(Cl)cc(-n3nc(N)c(=O)[nH]c3=O)cc2Cl)n[nH]c1=O)C1CCC1` [Compound 167], the EC50 lay in the range of 0.05 to 0.25 µM in assay [1] and 1 to 25 µM in assay [2]. Further, the Emax in assay [1] (Table 5, Assay 1, THRβ) is less than 50%; in assay [2] (Table 5, THRα), less than 50%.
As to `Nc1nn(-c2cc(Cl)c(Oc3n[nH]c(=O)cc3-c3cc4ccccn4n3)c(Cl)c2)c(=O)[nH]c1=O` [Compound 131], the EC50 in assay [1] and in assay [2] was 1 to 25 µM in each case. The Emax was less than 50% in assay [1] (Table 5, Assay 1, THRβ) and less than 50% in assay [2] (Table 5, THRα).
On to `O=c1cnn(-c2cc(Cl)c(Oc3cc(-c4ccc5sccc5c4)c(=O)[nH]n3)c(Cl)c2)c(=O)[nH]1` [Compound 135], for which the EC50 in assay [1] and in assay [2] was more than 25 µM each time. In addition, the Emax is less than 50% in assay [1] (Table 5, Assay 1, THRβ) and less than 50% in assay [2] (Table 5, THRα).
`Cc1cc(-n2nc(C#N)c(=O)[nH]c2=O)cc(C)c1Cc1ccc2c(c1)C1(CCC1)C(=O)N2` [Compound 153, 2-(3,5-Dimethyl-4-((2′-oxospiro[cyclobutane-1,3′-indolin]-5′-yl)methyl)phenyl)-3,5-dioxo-2,3,4,5-tetrahydro-1,2,4-triazine-6-carbonitrile]: the EC50 in assay [1] and in assay [2] was less than 0.05 µM in each case. In addition, the Emax is less than 50% in assay [1] (Table 5, Assay 1, THRβ) and less than 50% in assay [2] (Table 5, THRα).
In the case of `Nc1nn(-c2cc(Cl)c(Oc3n[nH]c(=O)cc3-c3ccc4ccnn4c3)c(Cl)c2)c(=O)[nH]c1=O` [Compound 123], the EC50 in assay [1] and in assay [2] was more than 25 µM in each case. The Emax in assay [1] (Table 5, Assay 1, THRβ) is less than 50%; in assay [2] (Table 5, THRα) it was less than 50%.
On to `Nc1nn(-c2cc(Cl)c(Oc3cc(-c4cnc5ccccc5c4)c(=O)[nH]n3)c(Cl)c2)c(=O)[nH]c1=O` [Compound 132], for which the EC50 in assay [1] and in assay [2] was more than 25 µM in each case. The maximum response (Emax) was less than 50% in assay [1] (Table 5, Assay 1, THRβ) and less than 50% in assay [2] (Table 5, THRα).
As to `Nc1nn(-c2cc(Cl)c(Oc3n[nH]c(=O)cc3-c3ccc4nnccc4c3)c(Cl)c2)c(=O)[nH]c1=O` [Compound 109], the EC50 in assay [1] and in assay [2] was more than 25 µM throughout. The Emax in assay [1] (Table 5, Assay 1, THRβ) is less than 50%; in assay [2] (Table 5, THRα) it was less than 50%.
With `N#Cc1nn(-c2cc(Cl)c(Oc3ccc4[nH]cc(-c5ccccc5)c4c3)c(Cl)c2)c(=O)[nH]c1=O` [Compound 7, 2-[3,5-dichloro-4-[(3-phenyl-1H-indol-5-yl)oxy]phenyl]-3,5-dioxo-4H-1,2,4-triazine-6-carbonitrile], the EC50 in assay [1] and in assay [2] was more than 25 µM in each case. Besides, the Emax in assay [1] was less than 50%; in assay [2] (Table 5, THRα), less than 50%.
Regarding `Nc1nn(-c2cc(Cl)c(Oc3n[nH]c(=O)cc3-c3cccc(F)c3)c(Cl)c2)c(=O)[nH]c1=O` [Compound 69-A, 6-amino-2-(3,5-dichloro-4-((4-(3-fluorophenyl)-6-oxo-1,6-dihydropyridazin-3-yl)oxy)phenyl)-1,2,4-triazine-3,5(2H,4H)-dione], the EC50 in assay [1] and in assay [2] was more than 25 µM each time. Also, the Emax in assay [1] (Table 5, Assay 1, THRβ) was less than 50%; in assay [2] (Table 5, THRα), less than 50%.
With `CC(C)[C@@H](C)c1cc(Oc2c(Cl)cc(-n3nc(N)c(=O)[nH]c3=O)cc2Cl)n[nH]c1=O` [Compound 169], the EC50 in assay [1] is less than 0.05 µM; in assay [2] it was 0.25 to 1 µM. Besides, the Emax in assay [1] (Table 5, Assay 1, THRβ) is less than 50%; in assay [2] (Table 5, THRα) it was less than 50%.
As to `Nc1nn(-c2cc(Cl)c(Oc3cc(-c4ccc5ccnn5c4)c(=O)[nH]n3)c(Cl)c2)c(=O)[nH]c1=O` [Compound 122], the EC50 in assay [1] and in assay [2] was 1 to 25 µM in each case. For the same compound, the Emax in assay [1] (Table 5, Assay 1, THRβ) is less than 50%; in assay [2] (Table 5, THRα) it was less than 50%.
In the case of `Nc1nn(-c2cc(Cl)c(Oc3n[nH]c(=O)cc3-c3ccn4cncc4c3)c(Cl)c2)c(=O)[nH]c1=O` [Compound 127], the EC50 in assay [1] and in assay [2] was more than 25 µM each time. The Emax in assay [1] (Table 5, Assay 1, THRβ) was less than 50%; in assay [2] (Table 5, THRα), less than 50%.
Take `Cc1cc(-c2cc(Oc3c(Cl)cc(-n4ncc(=O)[nH]c4=O)cc3Cl)n[nH]c2=O)ccn1` [Compound 141]: the EC50 in assay [1] is 1 to 25 µM; in assay [2] it was more than 25 µM. The Emax is less than 50% in assay [1] (Table 5, Assay 1, THRβ) and less than 50% in assay [2] (Table 5, THRα).
For the compound `Cc1cc(-c2cc(=O)[nH]nc2Oc2c(Cl)cc(-n3ncc(=O)[nH]c3=O)cc2Cl)ccn1` [Compound 142], the EC50 in assay [1] and in assay [2] was more than 25 µM throughout. For the same compound, the Emax in assay [1] (Table 5, Assay 1, THRβ) was less than 50%; in assay [2] (Table 5, THRα), less than 50%.
Regarding `Cc1cncc(-c2cc(=O)[nH]nc2Oc2c(Cl)cc(-n3ncc(=O)[nH]c3=O)cc2Cl)c1` [Compound 138], the EC50 in assay [1] and in assay [2] was more than 25 µM in each case. For the same compound, the Emax in assay [1] (Table 5, Assay 1, THRβ) is less than 50%; in assay [2] (Table 5, THRα), less than 50%.
Consider `CC(C)[C@H](C)c1cc(Oc2c(Cl)cc(-n3nc(N)c(=O)[nH]c3=O)cc2Cl)n[nH]c1=O` [Compound 170], for which the EC50 in assay [1] is 0.05 to 0.25 µM; in assay [2], more than 25 µM. The Emax in assay [1] (Table 5, Assay 1, THRβ) was less than 50%; in assay [2] (Table 5, THRα), less than 50%.
